Test results from patent US6277867A, “Pesticide compounds, compositions and process for the preparation thereof” (priority 1995, dated 2001).
Where two headings read alike, the source gives them in different places.

What was measured:
[1] = system: two-spotted spider mite (Tetranychus urticae); assay: Synergist activity of compound 599 against two-spotted spider mite; type: in vivo; conditions: read-out: LC50
Experimental: From the first pair of leaves of a 1 week old bean plant leaf-discs of […] diameter were cut which were treated by dipping them (5 min) into the test solution consisting of the active ingredient and the synergist in definite concentrations. For the preparation of the stock solutions of required concentration, 10% acetone as co-solvent and 0.1% Tween-80 as detergent were applied. The dried leaf-discs were placed on wet surface and they were infected with […]-up female mites per leaf. […] The experiment was performed in 4 replica.
Synergist activity of compound 599 with various specific acaricides was investigated against two-spotted spider mite (Tetranychus urticae), by the method described in Example 8.

[2] = system: pea aphid (Acyrthosiphon pisun); assay: Synergist activity against pea aphid, field trial; type: in vivo; conditions: two days after treatment
Experimental: Synergist Activity Against Pea Aphid (Acyrthosiphon pisun)
Synergist activity of compound No. 599 was tested against pea aphid (Acyrthosiphon pisun) in field trials on small plots (10 m^2). 300 l/ha spray volume was applied using motoric sprayer (Maruyama). Efficacy was expressed by the average number of aphids/leaf before, and two days after the treatment, respectively. (Henderson and Tilton: J. Econ. Entomol., 48:157, 1955).

[3] = system: resistant house fly, INSEL strain; assay: Synergistic activity on resistant house fly, INSEL strain; type: in vivo, Musca domestica; conditions: active ingredient alone
Experimental: (§1) Investigation of Synergistic Activity on Resistant House Fly (Musca domestica) Populations
(§2) Investigation was carried out as described in biological Example 1. LD50 values and synergist ratios were determined as given in Example 2.

[4] = system: resistant house fly, IX strain; assay: Synergistic activity on resistant house fly, IX strain; type: in vivo, Musca domestica; conditions: active ingredient alone
Experimental: as §1, §2

## CC(C)(C)c1ccc(CCOc2ncnc3ccccc23)cc1 [FENAZAQUIN]
[1]; Acaricide/Synergist 1:0, 3 h
  LC50: > 1000 µg/mL
[1]; Acaricide/Synergist 1:0, 24 h
  LC50: 41.9 µg/mL

## N#Cc1nn(-c2c(Cl)cc(C(F)(F)F)cc2Cl)c(N)c1[S+]([O-])C(F)(F)F (stereo not drawn) [FIPRONIL]
[2]; dose 240 act. ingr./ha
  E (%): 94.6%

## O=[N+]([O-])NC1=NCCN1Cc1ccc(Cl)nc1 [IMIDACLOPRID]
[2]; dose 120 act. ingr./ha
  E (%): 98.4%

## CNC(=O)Oc1ccccc1C(C)C [ISOPROCARB, reference compound]
[3]
  LD50: > 100000 ng/fly
[4]
  LD50: > 100000 ng/fly

## CNC(=O)ON=C(C)SC [METHOMYL, reference compound]
[3]
  LD50: 475 ng/fly
[4]
  LD50: 851 ng/fly

## Cc1nc(N(C)C)nc(OC(=O)N(C)C)c1C [PIRIMICARB, reference compound]
[2]; dose 80 act. ingr./ha
  E (%): 86.3%
[2]; dose 250 act. ingr./ha
  E (%): 93.8%
[3]
  LD50: > 100000 ng/fly
[4]
  LD50: > 100000 ng/fly

## CCc1nn(C)c(C(=O)NCc2ccc(C(C)(C)C)cc2)c1Cl [TEBUFENPYRAD]
[1]; Acaricide/Synergist 1:0, 3 h
  LC50: > 1000 µg/mL
[1]; Acaricide/Synergist 1:0, 24 h
  LC50: 63.4 µg/mL

## CCOC(=O)CSc1nc(C(C)(C)C)nn1C(=O)N(C)C [TRIAZAMATE]
[2]; dose 50 act. ingr./ha
  E (%): 96.8%
